From patent publication US20240058422A1, “GLUCAGON-LIKE PEPTIDE-1 RECEPTOR ANTAGONISTS” (INDIANA UNIVERSITY RESEARCH AND TECHNOLOGY CORPORATION, priority 2022, published 2024)
Converted amounts (≈) assume the structure as drawn. Where two headings read alike, the source gives them in different places. Non-standard residues stand in square brackets, D forms with d. Residues, ends and D or L forms follow the SMILES beside them. *: point of attachment. Palmitoyl = CCCCCCCCCCCCCCCC(=O)*; Aib = CC(C)(N)C(=O)O

How the values were obtained:
physchem = details: pH 7.7, Solubility 80 mM AmeBicarb pH7.7
GLP-1R = GLP-1R (Homo sapiens, UniProt P43220); assay: GLP-1 receptor-mediated cAMP induction, luciferase reporter gene antagonism assay; format: cell-based; design: host or cells: HEK 293; details: antagonism of 0.05 nM GLP-1, HEK 293 cells
Sequence of GLP-1R (P43220 24-463): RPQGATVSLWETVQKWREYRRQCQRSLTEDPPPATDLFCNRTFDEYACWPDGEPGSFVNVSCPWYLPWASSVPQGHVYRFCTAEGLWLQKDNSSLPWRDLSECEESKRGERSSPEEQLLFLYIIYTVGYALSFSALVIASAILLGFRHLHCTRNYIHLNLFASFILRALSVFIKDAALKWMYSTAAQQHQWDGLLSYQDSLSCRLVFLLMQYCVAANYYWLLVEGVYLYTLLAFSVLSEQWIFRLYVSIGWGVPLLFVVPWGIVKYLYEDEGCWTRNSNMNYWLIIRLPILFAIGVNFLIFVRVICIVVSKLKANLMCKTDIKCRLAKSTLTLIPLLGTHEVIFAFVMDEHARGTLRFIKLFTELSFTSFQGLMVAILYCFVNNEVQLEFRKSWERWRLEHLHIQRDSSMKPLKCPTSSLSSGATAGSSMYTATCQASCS
In short: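 HEK 293 cells cotransfected with human GLP-1 receptor and CRE-luciferase were serum-deprived 16 h, then given serial peptide dilutions followed by 0.05 nM GLP-1 and incubated 5 h at 37° C.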

[1] = 80 mM ammonium bicarbonate buffer, pH 7.7
[2] = Table 3, amino acid substitution variants of Jant4-K40, read-out: Bioactivity IC50
[3] = Table 5, d-AA variants of 9-40am Jant4 K40[C16], read-out: Bioactivity KC50

Row | SMILES | solubility (Solubility in buffer; [1]) [µg/mL] | IC50 (GLP-1R; [3]) [nM] | further results
1 | CCCCCCCCCCCCCCCC(=O)NCCCC[C@H](NC(=O)[C@H](CO)NC(=O)[C@@H]1CCCN1C(=O)[C@@H]1CCCN1C(=O)[C@@H]1CCCN1C(=O)[C@H](C)NC(=O)CNC(=O)[C@H](CO)NC(=O)[C@H](CO)NC(=O)[C@@H]1CCCN1C(=O)CNC(=O)CNC(=O)[C@H](CCCNC(=N)N)NC(=O)[C@@H](NC(=O)[C@H](CC(C)C)NC(=O)[C@H](Cc1c[nH]c2ccccc12)NC(=O)[C@H](CCC(=O)O)NC(=O)[C@@H](NC(=O)[C@H](Cc1ccccc1)NC(=O)[C@H](CCC(=O)O)NC(=O)[C@H](CCCNC(=N)N)NC(=O)[C@@H](NC(=O)[C@H](C)NC(=O)[C@H](CCC(N)=O)NC(=O)[C@H](CCC(=O)O)NC(=O)[C@H](CCC(=O)O)NC(=O)[C@H](CC(C)C)NC(=O)[C@H](Cc1ccc(O)cc1)NC(=O)[C@H](CO)NC(=O)[C@H](CO)NC(=O)[C@@H](NC(=O)[C@@H](N)CC(=O)O)C(C)C)C(C)C)[C@@H](C)CC)C(C)C)C(N)=O [compound 70] (H-DVSSYLEEQAVREFIEWLVRGGPSSGAPPPSK(Palmitoyl)-NH2) |  |  | solubility (physchem): > 20 mg/mL
2 | CCCCCCCCCCCCCCCC(=O)NCCCC[C@H](NC(=O)[C@H](CO)NC(=O)[C@@H]1CCCN1C(=O)[C@@H]1CCCN1C(=O)[C@@H]1CCCN1C(=O)[C@H](C)NC(=O)CNC(=O)[C@H](CO)NC(=O)[C@H](CO)NC(=O)[C@@H]1CCCN1C(=O)CNC(=O)CNC(=O)[C@H](CCCNC(=N)N)NC(=O)[C@@H](NC(=O)[C@H](CC(C)C)NC(=O)[C@H](Cc1c[nH]c2ccccc12)NC(=O)[C@H](CCC(=O)O)NC(=O)[C@@H](NC(=O)[C@H](Cc1ccccc1)NC(=O)[C@H](CCC(=O)O)NC(=O)[C@H](CCCNC(=N)N)NC(=O)[C@@H](NC(=O)[C@H](C)NC(=O)[C@H](CCC(=O)O)NC(=O)[C@H](CCC(=O)O)NC(=O)[C@H](CCC(=O)O)NC(=O)[C@H](CC(C)C)NC(=O)[C@H](Cc1ccc(O)cc1)NC(=O)[C@H](CO)NC(=O)[C@H](CO)NC(=O)[C@@H](NC(=O)[C@@H](N)CC(=O)O)C(C)C)C(C)C)[C@@H](C)CC)C(C)C)C(N)=O [compound 72] (H-DVSSYLEEEAVREFIEWLVRGGPSSGAPPPSK(Palmitoyl)-NH2; N-terminus assumed) | > 20000 |  | IC50 (GLP-1R; [2]): 19 nM
3 | CCCCCCCCCCCCCCCC(=O)NCCCC[C@H](NC(=O)[C@H](CO)NC(=O)[C@@H]1CCCN1C(=O)[C@@H]1CCCN1C(=O)[C@@H]1CCCN1C(=O)[C@H](C)NC(=O)CNC(=O)[C@H](CO)NC(=O)[C@H](CO)NC(=O)[C@@H]1CCCN1C(=O)CNC(=O)CNC(=O)[C@H](CCCNC(=N)N)NC(=O)[C@@H](NC(=O)[C@H](CC(C)C)NC(=O)[C@H](Cc1c[nH]c2ccccc12)NC(=O)[C@H](CCC(=O)O)NC(=O)[C@@H](NC(=O)[C@H](Cc1ccccc1)NC(=O)[C@H](CCC(=O)O)NC(=O)[C@H](CCCNC(=N)N)NC(=O)[C@@H](NC(=O)[C@H](C)NC(=O)[C@H](CCC(=O)O)NC(=O)[C@H](CCC(=O)O)NC(=O)[C@H](CCC(=O)O)NC(=O)[C@H](CC(C)C)NC(=O)[C@H](Cc1ccc(O)cc1)NC(=O)[C@H](CCCNC(=N)N)NC(=O)[C@H](CO)NC(=O)[C@@H](NC(=O)[C@@H](N)CC(=O)O)C(C)C)C(C)C)[C@@H](C)CC)C(C)C)C(N)=O [compound 75] (H-DVSRYLEEEAVREFIEWLVRGGPSSGAPPPSK(Palmitoyl)-NH2; N-terminus assumed) | 18600 (≈ 4900 µM) |  | IC50 (GLP-1R; [2]): 19 nM
4 | CCCCCCCCCCCCCCCC(=O)N[C@@H](CCC(=O)NCCOCCOCC(=O)NCCCC[C@H](NC(=O)[C@H](CO)NC(=O)[C@@H]1CCCN1C(=O)[C@@H]1CCCN1C(=O)[C@@H]1CCCN1C(=O)[C@H](C)NC(=O)CNC(=O)[C@H](CO)NC(=O)[C@H](CO)NC(=O)[C@@H]1CCCN1C(=O)CNC(=O)CNC(=O)[C@@H](NC(=O)[C@H](CCCNC(=N)N)NC(=O)[C@H](CC(C)C)NC(=O)[C@H](Cc1c[nH]c2ccccc12)NC(=O)[C@H](CCC(=O)O)NC(=O)[C@@H](NC(=O)[C@H](Cc1ccccc1)NC(=O)[C@H](CCC(=O)O)NC(=O)[C@H](CCCNC(=N)N)NC(=O)[C@@H](NC(=O)[C@H](C)NC(=O)[C@H](CCC(N)=O)NC(=O)[C@H](CCC(=O)O)NC(=O)[C@H](CCC(=O)O)NC(=O)[C@H](CC(C)C)NC(=O)[C@H](Cc1ccc(O)cc1)NC(=O)[C@H](CO)NC(=O)[C@H](CO)NC(=O)[C@@H](NC(=O)[C@@H](N)CC(=O)O)C(C)C)C(C)C)[C@@H](C)CC)C(C)C)C(=O)O)C(=O)O [compound 79] |  |  | solubility (physchem): > 20 mg/mL
5 | CCCCCCCCCCCCCCCC(=O)NCCCC[C@H](NC(=O)[C@H](CO)NC(=O)[C@@H]1CCCN1C(=O)[C@@H]1CCCN1C(=O)[C@@H]1CCCN1C(=O)[C@H](C)NC(=O)CNC(=O)[C@H](CO)NC(=O)[C@H](CO)NC(=O)[C@@H]1CCCN1C(=O)CNC(=O)CNC(=O)[C@H](CCCCN)NC(=O)[C@@H](NC(=O)[C@H](CC(C)C)NC(=O)[C@H](Cc1c[nH]c2ccccc12)NC(=O)[C@H](C)NC(=O)[C@@H](NC(=O)[C@H](Cc1ccccc1)NC(=O)[C@H](CCC(=O)O)NC(=O)[C@H](CCCNC(=N)N)NC(=O)[C@@H](NC(=O)[C@H](C)NC(=O)[C@H](CCC(N)=O)NC(=O)C(C)(C)NC(=O)[C@H](CCC(=O)O)NC(=O)[C@H](CC(C)C)NC(=O)[C@H](Cc1ccc(O)cc1)NC(=O)[C@H](CO)NC(=O)[C@H](CO)NC(=O)[C@@H](NC(=O)[C@@H](N)CC(=O)O)C(C)C)C(C)C)[C@@H](C)CC)C(C)C)C(N)=O [compound 84] (H-DVSSYLE[Aib]QAVREFIAWLVKGGPSSGAPPPSK(Palmitoyl)-NH2) | 5200 (≈ 1450 µM) |  | solubility (Solubility in buffer; PBS, pH 7.7, Solubility [mg/mL] PBS pH7.7, Table 4, PBS pH7.7): 200 µg/mL (≈ 55.6 µM); IC50 (GLP-1R; Table 4, Aib variants of 9-40am Jant4 K40[C16], read-out: Bioactivity IC50): 30 nM
6 | CCCCCCCCCCCCCCCC(=O)NCCCC[C@H](NC(=O)[C@H](CO)NC(=O)[C@@H]1CCCN1C(=O)[C@@H]1CCCN1C(=O)[C@@H]1CCCN1C(=O)[C@H](C)NC(=O)CNC(=O)[C@H](CO)NC(=O)[C@H](CO)NC(=O)[C@@H]1CCCN1C(=O)CNC(=O)CNC(=O)[C@H](CCCCN)NC(=O)[C@@H](NC(=O)[C@H](CC(C)C)NC(=O)[C@H](Cc1c[nH]c2ccccc12)NC(=O)[C@H](C)NC(=O)[C@@H](NC(=O)[C@H](Cc1ccccc1)NC(=O)[C@H](CCC(=O)O)NC(=O)[C@H](CCCNC(=N)N)NC(=O)[C@@H](NC(=O)[C@H](C)NC(=O)[C@H](CCC(N)=O)NC(=O)[C@@H](CCC(=O)O)NC(=O)[C@H](CCC(=O)O)NC(=O)[C@H](CC(C)C)NC(=O)[C@H](Cc1ccc(O)cc1)NC(=O)[C@H](CO)NC(=O)[C@H](CO)NC(=O)[C@@H](NC(=O)[C@@H](N)CC(=O)O)C(C)C)C(C)C)[C@@H](C)CC)C(C)C)C(N)=O [compound 85] (H-DVSSYLE[dE]QAVREFIAWLVKGGPSSGAPPPSK(Palmitoyl)-NH2; N-terminus assumed) | 10700 (≈ 2940 µM) | 41 | 
7 | CCCCCCCCCCCCCCCC(=O)NCCCC[C@H](NC(=O)[C@H](CO)NC(=O)[C@@H]1CCCN1C(=O)[C@@H]1CCCN1C(=O)[C@@H]1CCCN1C(=O)[C@H](C)NC(=O)CNC(=O)[C@H](CO)NC(=O)[C@H](CO)NC(=O)[C@@H]1CCCN1C(=O)CNC(=O)CNC(=O)[C@H](CCCCN)NC(=O)[C@@H](NC(=O)[C@H](CC(C)C)NC(=O)[C@H](Cc1c[nH]c2ccccc12)NC(=O)[C@H](C)NC(=O)[C@@H](NC(=O)[C@H](Cc1ccccc1)NC(=O)[C@H](CCC(=O)O)NC(=O)[C@H](CCCNC(=N)N)NC(=O)[C@@H](NC(=O)[C@H](C)NC(=O)[C@@H](CCC(N)=O)NC(=O)[C@H](CCC(=O)O)NC(=O)[C@H](CCC(=O)O)NC(=O)[C@H](CC(C)C)NC(=O)[C@H](Cc1ccc(O)cc1)NC(=O)[C@H](CO)NC(=O)[C@H](CO)NC(=O)[C@@H](NC(=O)[C@@H](N)CC(=O)O)C(C)C)C(C)C)[C@@H](C)CC)C(C)C)C(N)=O [compound 86] (H-DVSSYLEE[dQ]AVREFIAWLVKGGPSSGAPPPSK(Palmitoyl)-NH2) | 2200 (≈ 604 µM) | 41 | 
8 | CCCCCCCCCCCCCCCC(=O)NCCCC[C@H](NC(=O)[C@H](CO)NC(=O)[C@@H]1CCCN1C(=O)[C@@H]1CCCN1C(=O)[C@@H]1CCCN1C(=O)[C@H](C)NC(=O)CNC(=O)[C@H](CO)NC(=O)[C@H](CO)NC(=O)[C@@H]1CCCN1C(=O)CNC(=O)CNC(=O)[C@H](CCCCN)NC(=O)[C@@H](NC(=O)[C@H](CC(C)C)NC(=O)[C@H](Cc1c[nH]c2ccccc12)NC(=O)[C@H](C)NC(=O)[C@@H](NC(=O)[C@H](Cc1ccccc1)NC(=O)[C@H](CCC(=O)O)NC(=O)[C@@H](CCCNC(=N)N)NC(=O)[C@@H](NC(=O)[C@H](C)NC(=O)[C@H](CCC(N)=O)NC(=O)[C@H](CCC(=O)O)NC(=O)[C@H](CCC(=O)O)NC(=O)[C@H](CC(C)C)NC(=O)[C@H](Cc1ccc(O)cc1)NC(=O)[C@H](CO)NC(=O)[C@H](CO)NC(=O)[C@@H](NC(=O)[C@@H](N)CC(=O)O)C(C)C)C(C)C)[C@@H](C)CC)C(C)C)C(N)=O [compound 87] (H-DVSSYLEEQAV[dR]EFIAWLVKGGPSSGAPPPSK(Palmitoyl)-NH2; N-terminus assumed) | 800 (≈ 220 µM) | 16 | 
9 | CCCCCCCCCCCCCCCC(=O)NCCCC[C@H](NC(=O)[C@H](CO)NC(=O)[C@@H]1CCCN1C(=O)[C@@H]1CCCN1C(=O)[C@@H]1CCCN1C(=O)[C@H](C)NC(=O)CNC(=O)[C@H](CO)NC(=O)[C@H](CO)NC(=O)[C@@H]1CCCN1C(=O)CNC(=O)CNC(=O)[C@H](CCCCN)NC(=O)[C@@H](NC(=O)[C@H](CC(C)C)NC(=O)[C@H](Cc1c[nH]c2ccccc12)NC(=O)[C@H](C)NC(=O)[C@@H](NC(=O)[C@H](Cc1ccccc1)NC(=O)[C@@H](CCC(=O)O)NC(=O)[C@H](CCCNC(=N)N)NC(=O)[C@@H](NC(=O)[C@H](C)NC(=O)[C@H](CCC(N)=O)NC(=O)[C@H](CCC(=O)O)NC(=O)[C@H](CCC(=O)O)NC(=O)[C@H](CC(C)C)NC(=O)[C@H](Cc1ccc(O)cc1)NC(=O)[C@H](CO)NC(=O)[C@H](CO)NC(=O)[C@@H](NC(=O)[C@@H](N)CC(=O)O)C(C)C)C(C)C)[C@@H](C)CC)C(C)C)C(N)=O [compound 88] (H-DVSSYLEEQAVR[dE]FIAWLVKGGPSSGAPPPSK(Palmitoyl)-NH2) | 1700 (≈ 467 µM) | 27 | 
